Legend:
Format in all cases: cell-based, human
[1] = test system: MART-126-35-specific CTL clone M26-H1; assay: Saturation mutagenesis APL screen: bead-based cross-presentation by immature dendritic cells, IFN-γ sandwich ELISA; settings: 200 μl bacterial cultures, 88 clones, CTL clone M26-H1, FIG. 2
CD-4+ cells = assay: NY-ESO-1 APL cross-presented mini-gene products, IFN-γ ELISA, CD-4+ cells (FIG. 8A)
Method: FIG. 8A. Native and superagonist CTL determinants can be distinguished in bead-based cross presentation assay. Oligonucleotides encoding NY-ESO-1157-170 were cloned into and expressed by pQE40 expression vectors. The mini-gene products were isolated and “fed” to immature dendritic cells as described in the Examples. NY-ESO-1157-170-specific CTL clones were used to detect the presence of the cross-presented mini-gene products (NY-ESO-1157-170). Induced IFN-γ expression was determined by standard sandwich ELISA. Synthetic wild-type peptide was used a positive control. […] Results for CD-4+ cells are shown.
FIG. 8A and FIG. 8B show the ability of several NY-ES0-1APL to stimulate CD-4^| fractions (FIG. 8A) and PBMC (FIG. 8B).

[2] = test system: A375 (HLA-A2+/NY-ESO-1+) melanoma cell line; assay: In vitro cytotoxicity assay (51Cr release) by polyclonal CTL lines generated with analog peptides; target A375
Method: (§1) Isolated cells were replicated using 30 ng/ml anti-CD3 antibody (OKT3) and IL-2 at 50 U/ml in the presence of irradiated feeder PBMC and LCL for 2 weeks. IL-2 was replenished every 2-3 days.
(§2) Target cells were labeled with 100 μCi of ^51Cr and co-cultured with effector cells for 4 hours at 37° C. plus 5% CO2. […] Released ^51Cr was measured with a gamma scintillation counter and percent specific lysis was determined by using the formula: percent specific release=(experimental release-spontaneous release)/(maximum release-spontaneous release). […]
(§3) “ND” is not done. T2 is a TAP-deficient cell line that expresses peptide-unbound HLA-A2 molecules unless pulsed extracellularly. […] Numbers represent the percentage specific lysis obtained from each target. T375 is a HLA-A2 positive/MART-1 negative cell line.

[3] = test system: T2 cells pulsed with NY-ESO-1157-165; assay: In vitro cytotoxicity assay (51Cr release) by polyclonal CTL lines generated with analog peptides; target T2 pulsed with NY-ESO-1157-165 (negative control); settings: target T2 (pulsed with NYESO-1157-165)
Method: as §1, §2, §3

[4] = test system: Mel 526 (HLA-A2+/MART-1+) melanoma cell line; assay: In vitro cytotoxicity assay (51Cr release) by polyclonal CTL lines generated with analog peptides; target Mel 526; settings: target Mel526
Method: as §1, §2, §3

[5] = test system: T2 cells pulsed with 1 μM of MART-126-35; assay: In vitro cytotoxicity assay (51Cr release) by polyclonal CTL lines generated with analog peptides; target T2 pulsed with MART-126-35 (M26)
Method: as §1, §2, §3

[6] = CTL line from Healthy1, E/T 12.5
[7] = CTL line from MelPt-B, E/T 12.5
[8] = CTL line from MelPt-C, E/T 12.5
[9] = CTL line from MelPt-D, E/T 12.5
[10] = CTL line from MelPt-F, E/T 12.5

## A27M: APL clones of MART-126-35 containing methionine residues at P2; previously described superagonist
[1]
  IFN-γ expression in P2 library screen of MART-126-35: greater IFN-γ expression than wild type MART-126-35

## F170W: NY-ESO-1157-170 APL F170W (SLLMWITQCFLPVW)
CD-4+ cells
  Stimulation of CD-4+ cells: most effective

## I162Q: NY-ESO-1157-170 APL I162Q (SLLMWQTQCFLPVF)
CD-4+ cells
  Stimulation of CD-4+ cells: most effective

## MART-126-35L33M (EAAGIGIMTV; UniProt Q16655 26-35, looked up, variant L33M)
[2]; [6]
  Percentage Specific Lysis from polyclonal CTL lines generated with the indicated peptide: 10%
[2]; CTL line from Healthy1, E/T 25
  Percentage Specific Lysis from polyclonal CTL lines generated with the indicated peptide: 13%
[2]; CTL line from Healthy1, E/T 50
  Percentage Specific Lysis from polyclonal CTL lines generated with the indicated peptide: 13%
[2]; [7]
  Percentage Specific Lysis from polyclonal CTL lines generated with the indicated peptide: 9%
[2]; CTL line from MelPt-B, E/T 25
  Percentage Specific Lysis from polyclonal CTL lines generated with the indicated peptide: 12%
[2]; CTL line from MelPt-B, E/T 50
  Percentage Specific Lysis from polyclonal CTL lines generated with the indicated peptide: 13%
[2]; [8]
  Percentage Specific Lysis from polyclonal CTL lines generated with the indicated peptide: 5%
[2]; CTL line from MelPt-C, E/T 25
  Percentage Specific Lysis from polyclonal CTL lines generated with the indicated peptide: 2%
[2]; CTL line from MelPt-C, E/T 50
  Percentage Specific Lysis from polyclonal CTL lines generated with the indicated peptide: 0%
[2]; [9]
  Percentage Specific Lysis from polyclonal CTL lines generated with the indicated peptide: 6%
[2]; CTL line from MelPt-D, E/T 25
  Percentage Specific Lysis from polyclonal CTL lines generated with the indicated peptide: 4%
[2]; CTL line from MelPt-D, E/T 50
  Percentage Specific Lysis from polyclonal CTL lines generated with the indicated peptide: 2%
[2]; [10]
  Percentage Specific Lysis from polyclonal CTL lines generated with the indicated peptide: 5%
[2]; CTL line from MelPt-F, E/T 25
  Percentage Specific Lysis from polyclonal CTL lines generated with the indicated peptide: 3%
[2]; CTL line from MelPt-F, E/T 50
  Percentage Specific Lysis from polyclonal CTL lines generated with the indicated peptide: 2%
[3]; [6]
  Percentage Specific Lysis from polyclonal CTL lines generated with the indicated peptide: 5%
[3]; CTL line from Healthy1, E/T 25
  Percentage Specific Lysis from polyclonal CTL lines generated with the indicated peptide: 6%
[3]; CTL line from Healthy1, E/T 50
  Percentage Specific Lysis from polyclonal CTL lines generated with the indicated peptide: 2%
[3]; [7]
  Percentage Specific Lysis from polyclonal CTL lines generated with the indicated peptide: 4%
[3]; CTL line from MelPt-B, E/T 25
  Percentage Specific Lysis from polyclonal CTL lines generated with the indicated peptide: 2%
[3]; CTL line from MelPt-B, E/T 50
  Percentage Specific Lysis from polyclonal CTL lines generated with the indicated peptide: 2%
[3]; [8]
  Percentage Specific Lysis from polyclonal CTL lines generated with the indicated peptide: 11%
[3]; CTL line from MelPt-C, E/T 25
  Percentage Specific Lysis from polyclonal CTL lines generated with the indicated peptide: 12%
[3]; CTL line from MelPt-C, E/T 50
  Percentage Specific Lysis from polyclonal CTL lines generated with the indicated peptide: 9%
[3]; [9]
  Percentage Specific Lysis from polyclonal CTL lines generated with the indicated peptide: 8%
[3]; CTL line from MelPt-D, E/T 25
  Percentage Specific Lysis from polyclonal CTL lines generated with the indicated peptide: 11%
[3]; CTL line from MelPt-D, E/T 50
  Percentage Specific Lysis from polyclonal CTL lines generated with the indicated peptide: 14%
[3]; [10]
  Percentage Specific Lysis from polyclonal CTL lines generated with the indicated peptide: 22%
[3]; CTL line from MelPt-F, E/T 25
  Percentage Specific Lysis from polyclonal CTL lines generated with the indicated peptide: 21%
[3]; CTL line from MelPt-F, E/T 50
  Percentage Specific Lysis from polyclonal CTL lines generated with the indicated peptide: 23%
[4]; [6]
  Percentage Specific Lysis from polyclonal CTL lines generated with the indicated peptide: 44%
[4]; CTL line from Healthy1, E/T 25
  Percentage Specific Lysis from polyclonal CTL lines generated with the indicated peptide: 57%
[4]; CTL line from Healthy1, E/T 50
  Percentage Specific Lysis from polyclonal CTL lines generated with the indicated peptide: 65%
[4]; [7]
  Percentage Specific Lysis from polyclonal CTL lines generated with the indicated peptide: 58%
[4]; CTL line from MelPt-B, E/T 25
  Percentage Specific Lysis from polyclonal CTL lines generated with the indicated peptide: 70%
[4]; CTL line from MelPt-B, E/T 50
  Percentage Specific Lysis from polyclonal CTL lines generated with the indicated peptide: 80%
[4]; [8]
  Percentage Specific Lysis from polyclonal CTL lines generated with the indicated peptide: 45%
[4]; CTL line from MelPt-C, E/T 25
  Percentage Specific Lysis from polyclonal CTL lines generated with the indicated peptide: 52%
[4]; CTL line from MelPt-C, E/T 50
  Percentage Specific Lysis from polyclonal CTL lines generated with the indicated peptide: 58%
[4]; [9]
  Percentage Specific Lysis from polyclonal CTL lines generated with the indicated peptide: 45%
[4]; CTL line from MelPt-D, E/T 25
  Percentage Specific Lysis from polyclonal CTL lines generated with the indicated peptide: 54%
[4]; CTL line from MelPt-D, E/T 50
  Percentage Specific Lysis from polyclonal CTL lines generated with the indicated peptide: 57%
[4]; [10]
  Percentage Specific Lysis from polyclonal CTL lines generated with the indicated peptide: 38%
[4]; CTL line from MelPt-F, E/T 25
  Percentage Specific Lysis from polyclonal CTL lines generated with the indicated peptide: 42%
[4]; CTL line from MelPt-F, E/T 50
  Percentage Specific Lysis from polyclonal CTL lines generated with the indicated peptide: 44%
[5]; [6]
  Percentage Specific Lysis from polyclonal CTL lines generated with the indicated peptide: 38%
[5]; CTL line from Healthy1, E/T 25
  Percentage Specific Lysis from polyclonal CTL lines generated with the indicated peptide: 49%
[5]; CTL line from Healthy1, E/T 50
  Percentage Specific Lysis from polyclonal CTL lines generated with the indicated peptide: 57%
[5]; [7]
  Percentage Specific Lysis from polyclonal CTL lines generated with the indicated peptide: 41%
[5]; CTL line from MelPt-B, E/T 25
  Percentage Specific Lysis from polyclonal CTL lines generated with the indicated peptide: 52%
[5]; CTL line from MelPt-B, E/T 50
  Percentage Specific Lysis from polyclonal CTL lines generated with the indicated peptide: 63%
[5]; [8]
  Percentage Specific Lysis from polyclonal CTL lines generated with the indicated peptide: 76%
[5]; CTL line from MelPt-C, E/T 25
  Percentage Specific Lysis from polyclonal CTL lines generated with the indicated peptide: 84%
[5]; CTL line from MelPt-C, E/T 50
  Percentage Specific Lysis from polyclonal CTL lines generated with the indicated peptide: 91%
[5]; [9]
  Percentage Specific Lysis from polyclonal CTL lines generated with the indicated peptide: 75%
[5]; CTL line from MelPt-D, E/T 25
  Percentage Specific Lysis from polyclonal CTL lines generated with the indicated peptide: 84%
[5]; CTL line from MelPt-D, E/T 50
  Percentage Specific Lysis from polyclonal CTL lines generated with the indicated peptide: 90%
[5]; [10]
  Percentage Specific Lysis from polyclonal CTL lines generated with the indicated peptide: 65%
[5]; CTL line from MelPt-F, E/T 25
  Percentage Specific Lysis from polyclonal CTL lines generated with the indicated peptide: 72%
[5]; CTL line from MelPt-F, E/T 50
  Percentage Specific Lysis from polyclonal CTL lines generated with the indicated peptide: 70%

## Q164S: NY-ESO-1157-170 APL Q164S (SLLMWITSCFLPVF)
CD-4+ cells
  Stimulation of CD-4+ cells: most effective

— US10328135B2, “Method of obtaining cytolytic T cells by using mutant tumor epitopes” (priority 2010, dated 2019)
